# Experimental data as given in ChEMBL document CHEMBL5724914, “Linking interpersonal differences in gut microbiota composition and drug biotransformation activity” (2024).
# Test: (§1) The drug is tested on WLS-007 corresponding to human gut metagenome with ENA study accession number: PRJEB37062 and ENA sample accession number: ERS12561742 for biotransformation under anaerobic condition. The drug concentrations were measured over 9 timepoints collected between 0 and 24 hours of incubation by liquid-chromatography-coupled mass spectrometry (LC–MS)
# Details: 2 µM
# Also: call rule not given here.
row,Bacterial Biotransformation,SMILES
1,Compound metabolized,CCN(CC)C(C)CN1c2ccccc2Sc2ccccc21 (stereo not given) [ETHOPROPAZINE]
2,Compound metabolized,CCN(CC)CC#CCOC(=O)C(O)(c1ccccc1)C1CCCCC1.Cl (stereo not given) [OXYBUTYNIN CHLORIDE]

# Details: human gut metagenome, 24 h, 2 µM
row,Bacterial Biotransformation,SMILES
1,Compound metabolized,CCN(CC)C(C)CN1c2ccccc2Sc2ccccc21 (stereo not given) [ETHOPROPAZINE]
2,Compound metabolized,CCN(CC)CC#CCOC(=O)C(O)(c1ccccc1)C1CCCCC1.Cl (stereo not given) [OXYBUTYNIN CHLORIDE]

# Test: as §1, with “Z-016” for “WLS-007”, “mouse” for “human”, “ERS12561815” for “ERS12561742”
# Details: 2 µM
row,Bacterial Biotransformation,SMILES
1,Compound NOT metabolized,CCN(CC)C(C)CN1c2ccccc2Sc2ccccc21 (stereo not given) [ETHOPROPAZINE]
2,Compound NOT metabolized,CCN(CC)CC#CCOC(=O)C(O)(c1ccccc1)C1CCCCC1.Cl (stereo not given) [OXYBUTYNIN CHLORIDE]

# Details: human gut metagenome, 24 h, 2 µM
# Remark: another data set of the same source
row,Bacterial Biotransformation,SMILES
1,Compound metabolized,CCN(CC)C(C)CN1c2ccccc2Sc2ccccc21 (stereo not given) [ETHOPROPAZINE]
2,Compound metabolized,CCN(CC)CC#CCOC(=O)C(O)(c1ccccc1)C1CCCCC1.Cl (stereo not given) [OXYBUTYNIN CHLORIDE]

# Details: human gut metagenome, 24 h, 2 µM
# Remark: another data set of the same source
row,Bacterial Biotransformation,SMILES
1,Compound metabolized,CCN(CC)C(C)CN1c2ccccc2Sc2ccccc21 (stereo not given) [ETHOPROPAZINE]
2,Compound metabolized,CCN(CC)CC#CCOC(=O)C(O)(c1ccccc1)C1CCCCC1.Cl (stereo not given) [OXYBUTYNIN CHLORIDE]

# Details: human gut metagenome, 24 h, 2 µM
# Remark: another data set of the same source
row,Bacterial Biotransformation,SMILES
1,Compound metabolized,CCN(CC)C(C)CN1c2ccccc2Sc2ccccc21 (stereo not given) [ETHOPROPAZINE]
2,Compound metabolized,CCN(CC)CC#CCOC(=O)C(O)(c1ccccc1)C1CCCCC1.Cl (stereo not given) [OXYBUTYNIN CHLORIDE]

# Details: human gut metagenome, 24 h, 2 µM
# Remark: another data set of the same source
row,Bacterial Biotransformation,SMILES
1,Compound NOT metabolized,CCN(CC)C(C)CN1c2ccccc2Sc2ccccc21 (stereo not given) [ETHOPROPAZINE]
2,Compound NOT metabolized,CCN(CC)CC#CCOC(=O)C(O)(c1ccccc1)C1CCCCC1.Cl (stereo not given) [OXYBUTYNIN CHLORIDE]

# Test: as §1, with “Z-017” for “WLS-007”, “mouse” for “human”, “ERS12561816” for “ERS12561742”
# Details: 2 µM
row,Bacterial Biotransformation,SMILES
1,Compound NOT metabolized,CCN(CC)C(C)CN1c2ccccc2Sc2ccccc21 (stereo not given) [ETHOPROPAZINE]
2,Compound NOT metabolized,CCN(CC)CC#CCOC(=O)C(O)(c1ccccc1)C1CCCCC1.Cl (stereo not given) [OXYBUTYNIN CHLORIDE]

# Details: human gut metagenome, 24 h, 2 µM
# Remark: another data set of the same source
row,Bacterial Biotransformation,SMILES
1,Compound metabolized,CCN(CC)C(C)CN1c2ccccc2Sc2ccccc21 (stereo not given) [ETHOPROPAZINE]
2,Compound metabolized,CCN(CC)CC#CCOC(=O)C(O)(c1ccccc1)C1CCCCC1.Cl (stereo not given) [OXYBUTYNIN CHLORIDE]

# Test: as §1, with “WLS-310” for “WLS-007”, “ERS12561785” for “ERS12561742”
# Details: 2 µM
row,Bacterial Biotransformation,SMILES
1,Compound metabolized,CCN(CC)C(C)CN1c2ccccc2Sc2ccccc21 (stereo not given) [ETHOPROPAZINE]
2,Compound metabolized,CCN(CC)CC#CCOC(=O)C(O)(c1ccccc1)C1CCCCC1.Cl (stereo not given) [OXYBUTYNIN CHLORIDE]

# Test: as §1, with “Z-013” for “WLS-007”, “rabbit” for “human”, “ERS12561813” for “ERS12561742”
# Details: 2 µM
row,Bacterial Biotransformation,SMILES
1,Compound NOT metabolized,CCN(CC)C(C)CN1c2ccccc2Sc2ccccc21 (stereo not given) [ETHOPROPAZINE]
2,Compound NOT metabolized,CCN(CC)CC#CCOC(=O)C(O)(c1ccccc1)C1CCCCC1.Cl (stereo not given) [OXYBUTYNIN CHLORIDE]

# Details: human gut metagenome, 24 h, 2 µM
# Remark: another data set of the same source
row,Bacterial Biotransformation,SMILES
1,Compound metabolized,CCN(CC)C(C)CN1c2ccccc2Sc2ccccc21 (stereo not given) [ETHOPROPAZINE]
2,Compound metabolized,CCN(CC)CC#CCOC(=O)C(O)(c1ccccc1)C1CCCCC1.Cl (stereo not given) [OXYBUTYNIN CHLORIDE]

# Test: as §1, with “WLS-073” for “WLS-007”, “ERS12561749” for “ERS12561742”
# Details: 2 µM
row,Bacterial Biotransformation,SMILES
1,Compound metabolized,CCN(CC)C(C)CN1c2ccccc2Sc2ccccc21 (stereo not given) [ETHOPROPAZINE]
2,Compound NOT metabolized,CCN(CC)CC#CCOC(=O)C(O)(c1ccccc1)C1CCCCC1.Cl (stereo not given) [OXYBUTYNIN CHLORIDE]

# Test: as §1, with “WLS-038” for “WLS-007”, “ERS12561745” for “ERS12561742”
# Details: 2 µM
row,Bacterial Biotransformation,SMILES
1,Compound NOT metabolized,CCN(CC)C(C)CN1c2ccccc2Sc2ccccc21 (stereo not given) [ETHOPROPAZINE]
2,Compound metabolized,CCN(CC)CC#CCOC(=O)C(O)(c1ccccc1)C1CCCCC1.Cl (stereo not given) [OXYBUTYNIN CHLORIDE]

# Test: as §1, with “Z-008” for “WLS-007”, “to” for “to human gut”, “ERS12561808” for “ERS12561742”
# Details: 2 µM
row,Bacterial Biotransformation,SMILES
1,Compound NOT metabolized,CCN(CC)C(C)CN1c2ccccc2Sc2ccccc21 (stereo not given) [ETHOPROPAZINE]
2,Compound NOT metabolized,CCN(CC)CC#CCOC(=O)C(O)(c1ccccc1)C1CCCCC1.Cl (stereo not given) [OXYBUTYNIN CHLORIDE]

# Details: human gut metagenome, 24 h, 2 µM
# Remark: another data set of the same source
row,Bacterial Biotransformation,SMILES
1,Compound metabolized,CCN(CC)C(C)CN1c2ccccc2Sc2ccccc21 (stereo not given) [ETHOPROPAZINE]
2,Compound metabolized,CCN(CC)CC#CCOC(=O)C(O)(c1ccccc1)C1CCCCC1.Cl (stereo not given) [OXYBUTYNIN CHLORIDE]

# Test: as §1, with “Z-019” for “WLS-007”, “rat” for “human”, “ERS12561818” for “ERS12561742”
# Details: 2 µM
row,Bacterial Biotransformation,SMILES
1,Compound NOT metabolized,CCN(CC)C(C)CN1c2ccccc2Sc2ccccc21 (stereo not given) [ETHOPROPAZINE]
2,Compound NOT metabolized,CCN(CC)CC#CCOC(=O)C(O)(c1ccccc1)C1CCCCC1.Cl (stereo not given) [OXYBUTYNIN CHLORIDE]

# Test: as §1, with “Z-014” for “WLS-007”, “rat” for “human”, “ERS12561814” for “ERS12561742”
# Details: 2 µM
row,Bacterial Biotransformation,SMILES
1,Compound NOT metabolized,CCN(CC)C(C)CN1c2ccccc2Sc2ccccc21 (stereo not given) [ETHOPROPAZINE]
2,Compound NOT metabolized,CCN(CC)CC#CCOC(=O)C(O)(c1ccccc1)C1CCCCC1.Cl (stereo not given) [OXYBUTYNIN CHLORIDE]

# Test: as §1, with “WLS-220” for “WLS-007”, “ERS12561769” for “ERS12561742”
# Details: 2 µM
row,Bacterial Biotransformation,SMILES
1,Compound metabolized,CCN(CC)C(C)CN1c2ccccc2Sc2ccccc21 (stereo not given) [ETHOPROPAZINE]
2,Compound metabolized,CCN(CC)CC#CCOC(=O)C(O)(c1ccccc1)C1CCCCC1.Cl (stereo not given) [OXYBUTYNIN CHLORIDE]

# Test: as §1, with “WLS-086” for “WLS-007”, “ERS12561752” for “ERS12561742”
# Details: 2 µM
row,Bacterial Biotransformation,SMILES
1,Compound metabolized,CCN(CC)C(C)CN1c2ccccc2Sc2ccccc21 (stereo not given) [ETHOPROPAZINE]
2,Compound metabolized,CCN(CC)CC#CCOC(=O)C(O)(c1ccccc1)C1CCCCC1.Cl (stereo not given) [OXYBUTYNIN CHLORIDE]
